Laboratory results published in US6608082B1, “Treatment of erectile dysfunction using isoquinoline compound melanocortin receptor ligands” (Lion Bioscience AG, priority 1998, dated 2003).
Like-named read-outs stand apart in the source and are kept apart here. Each block holds one molecule with its values, some of them ahead of it.

Legend:
MCR-1 = target: T1, MCR-1 (Homo sapiens, UniProt Q01726); assay: Melanocortin receptor binding assay, competition with 125I-HP 467, HEK 293 cells expressing hMCR-1; details: read-out: MC-1 IC50
T1 construct: expressed in transfected cells; host or cells: HEK 293
T1 sequence (Q01726 whole entry): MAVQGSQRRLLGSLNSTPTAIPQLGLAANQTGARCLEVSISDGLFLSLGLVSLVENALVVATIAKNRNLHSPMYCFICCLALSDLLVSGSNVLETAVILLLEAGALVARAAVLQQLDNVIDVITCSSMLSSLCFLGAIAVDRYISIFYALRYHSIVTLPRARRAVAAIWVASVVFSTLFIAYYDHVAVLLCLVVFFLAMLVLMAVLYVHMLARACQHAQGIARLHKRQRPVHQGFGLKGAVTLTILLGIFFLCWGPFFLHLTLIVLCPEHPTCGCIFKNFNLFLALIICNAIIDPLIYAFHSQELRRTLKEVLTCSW
Procedure, shortened: (§1)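 Test compounds compete on intact HEK 293 cells carrying hMCR-1 (2×10^4 per tube) or hMCR-4 (4×10^3 per tube), suspended in PBS, 10% calf serum, 1 mM CaCl2.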

MCR-4 = target: T2, MCR-4 (Homo sapiens, UniProt P32245); assay: Melanocortin receptor binding assay, competition with 125I-HP 467, HEK 293 cells expressing hMCR-4; details: read-out: MC-4 IC50
T2 construct: expressed in transfected cells; host or cells: HEK 293
T2 sequence (P32245 whole entry): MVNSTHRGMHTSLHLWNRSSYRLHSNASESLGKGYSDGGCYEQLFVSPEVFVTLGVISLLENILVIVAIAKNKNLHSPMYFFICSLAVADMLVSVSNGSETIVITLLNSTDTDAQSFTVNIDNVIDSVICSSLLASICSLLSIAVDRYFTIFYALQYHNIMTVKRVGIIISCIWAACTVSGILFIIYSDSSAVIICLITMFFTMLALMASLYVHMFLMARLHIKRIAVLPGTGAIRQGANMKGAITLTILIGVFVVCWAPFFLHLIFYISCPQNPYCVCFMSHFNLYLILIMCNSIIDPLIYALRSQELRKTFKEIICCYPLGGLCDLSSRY
Procedure, shortened: as §1

[1] = competition with 125I-HP 467, HEK 293 cells expressing MCR-1
[2] = competition with 125I-HP 467, HEK 293 cells expressing MCR-4
[3] = inhibition of binding of 125I-HP 467, HEK 293 cells expressing MCR-1
[4] = inhibition of binding of 125I-HP 467, HEK 293 cells expressing MCR-4
[5] = TRG 2406 and TRG 2407 libraries, inhibition of binding of 125I-HP 467
[6] = inhibition of binding of 125I-HP 467, HEK 293 cells expressing MCR-1, TRG 2414 library
[7] = inhibition of binding of 125I-HP 467, HEK 293 cells expressing MCR-4, TRG 2414 library
[8] = TRG 2408 and TRG 2409 libraries, inhibition of 125I-HP 467 binding
[9] = TRG 2414 library, inhibition of binding of 125I-HP 467, HEK 293 cells expressing MCR-1
[10] = TRG 2414 library, inhibition of binding of 125I-HP 467, HEK 293 cells expressing MCR-4

IC50 (MCR-1; [1]): 3950 nM
IC50 (MCR-4; [2]): 12200 nM
SMILES: CNC(CN)CCCCN1Cc2ccccc2C(CNC2CCCCC2)C1c1ccc(NCc2ccc(Cl)cc2)cc1 (stereo not shown) [TRG 2409-24]

SMILES: CCNc1ccc(C2C(CNCCc3ccccc3)c3ccccc3CN2CCC[C@@H](CN)NCCOCCN(CC)CC)cc1 (stereo partly shown) [TRG 2420-11]
IC50 (MCR-1; [3]): 28 nM
IC50 (MCR-4; [4]): 4630 nM

SMILES: NCC(CCCCN1Cc2ccccc2C(CNCCc2ccc(O)cc2)C1c1cc(C(F)(F)F)cc(C(F)(F)F)c1)NCc1ccc(Br)cc1 (mixture of isomers) [TRG 2421-8]
IC50 (MCR-1; [3]): 5000 nM
IC50 (MCR-4; [4]): 5990 nM

IC50 (MCR-1; [5]): 2290 nM
IC50 (MCR-4; [5]): 2040 nM
SMILES: CNC(CN)CCCCN1Cc2ccccc2C(CNCc2ccc(OC)cc2)C1c1ccc(Cl)cc1Cl (stereo not shown) [TRG 2407-19]

IC50 (MCR-1; [5]): 8820 nM
IC50 (MCR-4; [5]): 14700 nM
SMILES: CNC(CN)CCCCN1Cc2ccccc2C(CNc2cccc(Cl)c2)C1c1ccc(Cl)cc1Cl (stereo not shown) [TRG 2407-5]

SMILES: CCNc1ccc(C2C(CNCCc3ccccc3)c3ccccc3CN2CCCC(CN)NCCCCCNC(C)C)cc1 (stereo not shown) [TRG 2420-1]
IC50 (MCR-1; [3]): 46 nM
IC50 (MCR-4; [4]): 1500 nM

IC50 (MCR-1; [3]): 160 nM
IC50 (MCR-4; [4]): 640 nM
SMILES: CCNc1ccc(C2C(CNCCc3ccccc3)c3ccccc3CN2CCCC(CN)NCCc2ccc3ccccc3c2)cc1 (stereo not shown) [TRG 2411-161]

IC50 (MCR-1; [5]): 190 nM
IC50 (MCR-4; [5]): 14900 nM
SMILES: CCNc1ccc(C2C(CNCc3ccccc3OCC)c3ccccc3CN2CCCCC(CN)NC)cc1 (stereo not shown) [TRG 2407-55]

IC50 (MCR-1; [6]): 9810 nM
IC50 (MCR-4; [7]): 3060 nM
SMILES: NCC(CCCCN1Cc2ccccc2C(CNCCc2cccc(Cl)c2)C1c1cc(C(F)(F)F)cc(C(F)(F)F)c1)NCCc1ccccc1 (stereo not shown) [TRG 2414-54]

IC50 (MCR-1; [1]): 280 nM
IC50 (MCR-4; [2]): 1650 nM
SMILES: CCNc1ccc(C2C(CNC3CCCCC3)c3ccccc3CN2CCCCC(CN)NCCc2ccc(OC)cc2)cc1 (stereo not shown) [TRG 2411-53]

IC50 (MCR-1; [3]): 1090 nM
IC50 (MCR-4; [4]): 6910 nM
SMILES: CCNc1ccc(C2C(CN)c3ccccc3CN2CCCC(CN)NCCCCO)cc1 (stereo not shown) [TRG 2419-8]

SMILES: COc1ccc(CCNCC2c3ccccc3CN(CCCCC(CN)NCc3ccc(-c4ccccc4)cc3)C2c2cc(C(F)(F)F)cc(C(F)(F)F)c2)cc1OC (stereo not shown) [TRG 2421-20]
IC50 (MCR-1; [3]): 4220 nM
IC50 (MCR-4; [4]): 1970 nM

IC50 (MCR-1; [8]): 3690 nM
IC50 (MCR-4; [8]): 12300 nM
SMILES: NCC(CCCCN1Cc2ccccc2C(CNC2CCCCC2)C1c1ccc(-c2ccccc2)cc1)NCCc1ccccc1 (stereo not shown) [TRG 2408-52]

IC50 (MCR-1; [1]): 110 nM
IC50 (MCR-4; [2]): 2240 nM
SMILES: CCCCNc1ccc(C2C(CNCCc3ccccc3)c3ccccc3CN2CCCCC(CN)NCC)cc1 (stereo not shown) [TRG 2411-74]

IC50 (MCR-1; [6]): 3770 nM
IC50 (MCR-4; [7]): 320 nM
SMILES: COc1ccccc1CCNCC1c2ccccc2CN(CCCC[C@H](N)CN)C1c1cc(C(F)(F)F)cc(C(F)(F)F)c1 (stereo partly shown) [TRG 2414-49]

IC50 (MCR-1; [8]): 7890 nM
IC50 (MCR-4; [8]): 5680 nM
SMILES: NCC(N)CCN1Cc2ccccc2C(CNC2CCCCC2)C1c1ccc(Cl)cc1Cl (stereo not shown) [TRG 2408-101]

IC50 (MCR-1; [5]): 8460 nM
IC50 (MCR-4; [5]): 9450 nM
SMILES: CNC(CN)CCCCN1Cc2ccccc2C(CNc2ccccc2Cl)C1c1ccc(Cl)cc1Cl (stereo not shown) [TRG 2407-3]

IC50 (MCR-1; [1]): 450 nM
IC50 (MCR-4; [2]): 1320 nM
SMILES: CCCCNc1ccc(C2C(CNCCc3ccccc3)c3ccccc3CN2CCCCC(CN)NCCc2ccc(Br)cc2)cc1 (stereo not shown) [TRG 2411-78]

IC50 (MCR-1; [3]): 90 nM
IC50 (MCR-4; [4]): 510 nM
SMILES: CCNc1ccc(C2C(CNCCc3ccccc3)c3ccccc3CN2CCCC(CN)NCc2ccc(OC)cc2)cc1 (stereo not shown) [TRG 2411-160]

IC50 (MCR-1; [5]): 3970 nM
IC50 (MCR-4; [5]): 2010 nM
SMILES: CNC(CN)CCCCN1Cc2ccccc2C(CNN2CCCCC2)C1c1ccc(Cl)cc1Cl (mixture of isomers) [TRG 2407-34]

IC50 (MCR-1; [9]): 14000 nM
IC50 (MCR-4; [10]): 18000 nM
SMILES: CC(C)Cc1ccc(C(C)CNC(CN)CCCCN2Cc3ccccc3C(CNC3CCCCCC3)C2c2ccccc2Br)cc1 (stereo not shown) [Cmpd 236]

IC50 (MCR-1; [3]): 1440 nM
IC50 (MCR-4; [4]): 2380 nM
SMILES: CCOc1ccc(C2C(CO)c3ccccc3CN2CCCC(CN)NCCC2CCCCC2)cc1 (stereo not shown) [TRG 2415-3]

SMILES: CCNc1ccc(C2C(CNCCc3ccccc3)c3ccccc3CN2CCCC(CN)NCCCCCNCCc2ccccc2)cc1 (stereo not shown) [TRG 2420-4]
IC50 (MCR-1; [3]): 68 nM
IC50 (MCR-4; [4]): 4170 nM

IC50 (MCR-1; [1]): 100 nM
IC50 (MCR-4; [2]): 1400 nM
SMILES: CCCCNc1ccc(C2C(CN)c3ccccc3CN2CCCCC(CN)NCc2ccc(OC)cc2)cc1 (stereo not shown) [TRG 2411-109]

IC50 (MCR-1; [3]): 60 nM
IC50 (MCR-4; [4]): 520 nM
SMILES: CCNc1ccc(C2C(CNCCc3ccccc3)c3ccccc3CN2CCCC(CN)NCC)cc1 (stereo not shown) [TRG 2411-152]

IC50 (MCR-1; [9]): 3320 nM
IC50 (MCR-4; [10]): 3270 nM
SMILES: NCC(N)CCCCN1Cc2ccccc2C(CNC2CCCCCC2)C1c1ccccc1Br (stereo not shown) [Cmpd 233]
